Source: patent publication US6528251B2, “Method of managing the chemotherapy of patients who are HIV positive based on the phenotypic drug sensitivity of human HIV strains” (Virco N.V., priority 1996, dated 2003)
Where two headings read alike, the source gives them in different places.

How the values were obtained:
Format in all cases: cell-based, HIV-1
[1] = test system: recombinant virus from patient viral RNA (Example 7, drug-naive patient); assay: Recombinant virus assay (MT4/MTT), drug-naive patient of Example 7; details: for IC50: Human immunodeficiency virus 1, Table 3, Example 7 patient virus; for ratio (1)/(2): Table 3, patient mean IC50 / recIIIB IC50, Example 7
Experimental: (§1) RNA was isolated from 100 μl of plasma according to the method described by Boom, R. et al. (1990, supra), and was reverse transcribed with the GeneAmp reverse transcriptase kit (Perkin Elmer) as described by the manufacturer and using an HIV-1 specific downstream primer (OUT3: 5′-CATTGCTCTCCAATTACTGTGATATTTCTCATC-3′; SEQ ID NO: 1). PCR on reverse transcribed RNA was performed with inner and outer primers as described by Kellam, P. and Larder, B. A. (1994, supra). After chloroform extraction and centrifugation on Centricon 100 columns or centrifugation on anion-exchange spin columns (Quiagen), the isolated PCR product was ready for use in the transfection reactions.
(§2) MT4 cells were subcultured at a density of 250,000 cells/ml before transfection (exponential growth phase). Cells were pelleted and resuspended in phosphate buffered saline (PBS) at a concentration of […]. A 0.8 ml portion (2.5 10E6 cells/ml) was used for each transfection. Transfection was performed with the Bio-Rad Gene pulser making use of 0.4 cm electrode cuvettes. Cells were electroporated in the presence of […] of linearised pHIVΔRT plasmid and approximately 5 μg of RT PCR product at 250SF and 300 V, followed by a 30-min incubation at room temperature. Subsequently, 10 ml of fresh culture medium was added to the cell suspension and incubation was performed at 37° C. in a humidified atmosphere of 5% CO2.
(§3) During 7 to 10 days following the transfection, cells were monitored for the appearance of cytopathogenic effect (CPE). In the absence thereof, cells were subcultured in different flasks. Subsequently, culture supernatants of transfected cells were used to create a stock of recombinant virus and stored in 1.5 ml aliquots at −70° C.
(§4) After titration of the new viruses, the stocks were used for antiviral experiments in the presence of serial dilutions of different HIV inhibitors. Titres of the harvested supematants were determined by limited serial dilution titration of virus in MT4 cells.
(§5) Viruses with a useful titre were used in antiviral experiments. For this purpose, 96-well microtitre plates were filled with 100μl of complete culture medium. Subsequently, stock solutions of compounds were added in 25 μl volumes to series of duplicate wells. HIV- and mock-infected cell samples were included for each drug (or drug combination). Exponentially growing MT4 cells were then transferred to the microtitre plates at a density of 150,000 cells/ml. The cell cultures were then incubated at 37° C. in a humidified atmosphere of 5% CO2. Five days after infection, the viability of the mock- and HIV-infected cells was examined spectrophotometrically by the M1T method (Pauwels, R. et al. J. Virol. Meth. (1988), 20: 309-321) as described in Section 6 below.
(§6) To each well of the microtiter plates, 20 μl of a solution of MTT (7.5 mg/ml in PBS) was added. The plates were further incubated at 37° C. for 1 h. Then, 150 μl of medium was removed without disturbing the MT4 cell clusters containing the formazan crystals. Solubilization of the formazan crystals was achieved by adding 100 μl 5% Triton X-100 in acidified isopropanol (5 ml concentrated HCl per liter solvent). Complete dissolution of the formazan crystals was obtained after the plates had been placed on a plate shaker for 10 min. Finally the absorbances were read at two wavelengths (540 and 690 nm). From these optical density (OD) data, 50% inhibitory (IC50) and 50% cytotoxic (CC50) concentrations were derived.
(§7) A drug-naive HIV-infected patient donated plasma whose susceptibility to a number of RT inhibitors was determined according to the protocol set out in Example 1. Recombinant wild type HIV strain recIIIB was used as a reference HIV virus.

[2] = test system: recombinant virus from patient viral RNA (Example 9); assay: Recombinant virus assay (MT4/MTT), patient of Example 9 (multiple nucleoside analogue RT-inhibitors); details: for IC50: Human immunodeficiency virus 1, Table 5, Example 9 patient virus; for ratio (1)/(2): Table 5, patient mean IC50 / recIIIB IC50, Example 9
Experimental: as §1, §2, §3, §4, §5, §6
as §7, with “An” for “A drug-naive”, “patient with a therapy history including multiple nucleoside analogue RT-inhibitors” for “patient”

[3] = test system: recombinant virus from patient viral RNA (Example 5, 3TC resistant HIV strains); assay: Recombinant virus assay (MT4/MTT), patient of Example 5 (AZT, then AZT+3TC therapy); details: for IC50: Human immunodeficiency virus 1, Table 1, Example 5 patient virus; for ratio (1)/(2): Table 1, patient mean IC50 / recIIIB IC50, Example 5
Experimental: as §1, §2, §3, §4, §5, §6
An HIV infected patient who received AZT from December 1989 until an undocumented later date, and switched to a combined chemotherapy of AZT+3TC (1:1) from February 1994 until October 1995 donated plasma whose susceptibility to a number of RT inhibitors was determined according to the above described protocol of Example 1. Recombinant wild type HIV strain recIIIB was used in said protocol as a reference HIV virus.

[4] = test system: recombinant virus from patient viral RNA (Example 6, drug-naive patient); assay: Recombinant virus assay (MT4/MTT), drug-naive patient of Example 6; details: for IC50: Human immunodeficiency virus 1, Table 2, Example 6 patient virus; for ratio (1)/(2): Table 2, patient mean IC50 / recIIIB IC50, Example 6
Experimental: as §1, §2, §3, §4, §5, §6
A drug-naive HIV infected patient donated plasma whose susceptibility to a number of RT inhibitors was determined according to the above described protocol of Example 1. Recombinant wild type HIV strain recIIIB was used in said protocol as a reference HIV virus.

[5] = test system: Recombinant wild type HIV strain recIIIB; assay: Antiviral MT4/MTT assay with reference virus recIIIB
Experimental: as §4, §5, §6

[6] = test system: recombinant virus from patient viral RNA (Example 8); assay: Recombinant virus assay (MT4/MTT), patient of Example 8 (therapy history AZT, 3TC and loviride); details: for IC50: Human immunodeficiency virus 1, Table 4, Example 8 patient virus; for ratio (1)/(2): Table 4, patient mean IC50 / recIIIB IC50, Example 8
Experimental: as §1, §2, §3, §4, §5, §6
An HIV-infected patient with a therapy history including AZT, 3TC and loviride donated plasma whose susceptibility to a number of RT inhibitors was determined according to the protocol set out in Example 1. Recombinant wild type HIV strain recIIIB was used as a reference HIV virus.

[7] = MT4 cells, read-out: Anti-HIV-1 activity IC50 (μM) Exp. 1
[8] = mean, read-out: Anti-HIV-1 activity IC50 (μM) Mean (1)
[9] = MT4 cells, read-out: Anti-HIV-1 activity IC50 (μM) Exp. 2
[10] = mean of Exp. 1 and 2, read-out: Anti-HIV-1 activity IC50 (μM) Mean (1)
[11] = Human immunodeficiency virus 1, Table 1, reference run of Example 5, read-out: Anti-HIV-1 activity IC50 (μM) recIIIB ref (2)
[12] = Human immunodeficiency virus 1, Table 2, reference run of Example 6, read-out: Anti-HIV-1 activity IC50 (μM) recIIIB ref (2)
[13] = Human immunodeficiency virus 1, Table 3, reference run of Example 7, read-out: Anti-HIV-1 activity IC50 (μM) recIIIB ref (2)
[14] = Human immunodeficiency virus 1, Table 4, reference run of Example 8, read-out: Anti-HIV-1 activity IC50 (μM) recIIIB ref (2)
[15] = Human immunodeficiency virus 1, Table 5, reference run of Example 9, read-out: Anti-HIV-1 activity IC50 (μM) recIIIB ref (2)
[16] = Human immunodeficiency virus 1, Table 6, reference run of Example 10, read-out: Anti-HIV-1 activity IC50 (μM) recIIIB ref (2)

| SMILES | IC50 [1, 7] [µM] | IC50 [1, 8] [µM] | ratio (1)/(2) [1] | IC50 [2, 7] [µM] | IC50 [2, 8] [µM] | ratio (1)/(2) [2] | IC50 [3, 7] [µM] | IC50 [3, 9] [µM] | IC50 [3, 10] [µM] | ratio (1)/(2) [3] | IC50 [4, 7] [µM] | IC50 [4, 9] [µM] | IC50 [4, 10] [µM] | ratio (1)/(2) [4] | IC50 [5, 11] [µM] | IC50 [5, 12] [µM] | IC50 [5, 13] [µM] | IC50 [5, 14] [µM] | IC50 [5, 15] [µM] | IC50 [6, 7] [µM] | further results |
| --- | --- | --- | --- | --- | --- | --- | --- | --- | --- | --- | --- | --- | --- | --- | --- | --- | --- | --- | --- | --- | --- |
| Nc1ccn([C@@H]2CS[C@H](CO)O2)c(=O)n1 [3TC, lamivudine] | 2.17 | 2.17 | 2 | > 100 | > 100 | >6 | 31.6 | 100 | 65.8 | 118 | 1.81 | 2.02 | 1.91 | 1 | 0.56 | 3.08 | 1.38 | 6.3 | 16.7 | > 100 | IC50 [2, 9]: > 100 µM; IC50 [5, 16]: 4.61 µM; IC50 ([5]; Human immunodeficiency virus 1, read-out: Anti-HIV-1 activity IC50 (μM) recIIIB ref (2), Table 7, reference run of Example 11): 5.18 µM; IC50 ([5]; Human immunodeficiency virus 1, read-out: Anti-HIV-1 activity IC50 (μM) recIIIB ref (2), Table 8, reference run of Example 12): 4.61 µM; IC50 [6, 9]: > 100 µM; IC50 [6, 8]: > 100 µM; ratio (1)/(2) [6]: >16 |
| O=c1[nH]cnc2c1ncn2[C@H]1CC[C@@H](CO)O1 [ddI, didanosinen] | 0.475 | 0.452 | 0.7 | > 100 | > 100 | >21 | 2 | 0.8 | 1.4 | 0.5 | 3.07 | 4.47 | 3.77 | 0.4 | 2.83 | 8.58 | 0.648 | 1.59 | 4.76 | 26.9 | IC50 [1, 9]: 0.429 µM; IC50 [2, 9]: > 100 µM; IC50 [6, 9]: 15.4 µM; IC50 [6, 8]: 21.1 µM; ratio (1)/(2) [6]: 13 |
| Nc1ccn([C@H]2CC[C@@H](CO)O2)c(=O)n1 [ddC, zalcitabine] | 1.04 | 1.22 | 0.8 | 60.1 | 66.6 | 19 | 0.2 | 0.2 | 0.2 | 0.5 | 1.45 | 1.47 | 1.46 | 1 | 0.38 | 2.21 | 1.62 | 1.93 | 3.44 | 9.29 | IC50 [1, 9]: 1.39 µM; IC50 [2, 9]: 73 µM; IC50 [6, 9]: 8.51 µM; IC50 [6, 8]: 8.9 µM; ratio (1)/(2) [6]: 5 |
| Cc1cn([C@H]2C[C@H](N=[N+]=[N-])[C@@H](CO)O2)c(=O)[nH]c1=O [AZT, zidovudine] | 0.052 | 0.051 | 2 | > 100 | > 100 | >344 | 0.001 | 0.002 | 0.002 | 0.4 | 0.04 | 0.05 | 0.05 | 1 | 0.004 | 0.06 | 0.023 | 0.084 | 0.291 | 18.3 | IC50 [1, 9]: 0.05 µM; IC50 [5, 16]: 0.041 µM; IC50 ([5]; Human immunodeficiency virus 1, Table 7, reference run of Example 11, read-out: Anti-HIV-1 activity IC50 (μM) recIIIB ref (2)): 0.047 µM; IC50 ([5]; Human immunodeficiency virus 1, Table 8, reference run of Example 12, read-out: Anti-HIV-1 activity IC50 (μM) recIIIB ref (2)): 0.041 µM; IC50 [6, 9]: 22.3 µM; IC50 [6, 8]: 20.3 µM; ratio (1)/(2) [6]: 241 |
